Data published in publication PMC8429728, “TNK1 is a ubiquitin-binding and 14-3-3-regulated kinase that can be targeted to block tumor growth” (Nature Communications, 2021).
Where two headings read alike, the source gives them in different places.

Key:
Experiment in all cases: biochemical
Set-up in all cases: Reaction Biology 371-kinase panel at Km ATP, per cent enzyme activity relative to DMSO, single dose in duplicate
Conditions in all cases: duplicate measurements, Km ATP
ALK = ALK (Homo sapiens, UniProt Q9UM73)
How it was run: (§1)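 Percent kinase activity relative to vehicle (DMSO) is reported for a 371-kinase in vitro panel at 300 nM compound; IC50 values derive from variable-slope sigmoidal fits with the lower plateau fixed at 0.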

BLK = BLK (Homo sapiens, UniProt P51451)
How it was run: as §1

CDK6/cyclin D3 = CDK6/cyclin D3 (Homo sapiens, UniProt Q00534)
How it was run: as §1

DAPK2 = DAPK2 (Homo sapiens, UniProt Q9UIK4)
How it was run: as §1

DCAMKL1 = biological target: T1, DCAMKL1 (Homo sapiens, UniProt O15075)
T1 construct: gene DCLK1
How it was run: as §1

FAK/PTK2 = FAK/PTK2 (Homo sapiens, UniProt Q05397)
How it was run: as §1

GRK5 = GRK5 (Homo sapiens, UniProt P34947)
How it was run: as §1

IKKe/IKBKE = IKKe/IKBKE (Homo sapiens, UniProt Q14164)
How it was run: as §1

LIMK2 = LIMK2 (Homo sapiens, UniProt P53671)
How it was run: as §1

MSK2/RPS6KA4 = MSK2/RPS6KA4 (Homo sapiens, UniProt O75676)
How it was run: as §1

NEK3 = NEK3 (Homo sapiens, UniProt P51956)
How it was run: as §1

PKG1b = biological target: T2, PKG1b (Homo sapiens, UniProt Q13976)
T2 construct: gene PRKG1; isoform beta
How it was run: as §1

PYK2 = biological target: T3, PYK2 (Homo sapiens, UniProt Q14289)
T3 construct: gene PTK2B
How it was run: as §1

RIPK2 = RIPK2 (Homo sapiens, UniProt O43353)
How it was run: as §1

RON/MST1R = RON/MST1R (Homo sapiens, UniProt Q04912)
How it was run: as §1

RSK3 = biological target: T4, RSK3 (Homo sapiens, UniProt Q15349)
T4 construct: gene RPS6KA2
How it was run: as §1

STK33 = STK33 (Homo sapiens, UniProt Q9BYT3)
How it was run: as §1

STK39/STLK3 = STK39/STLK3 (Homo sapiens, UniProt Q9UEW8)
How it was run: as §1

TESK2 = TESK2 (Homo sapiens, UniProt Q96S53)
How it was run: as §1

ZIPK/DAPK3 = ZIPK/DAPK3 (Homo sapiens, UniProt O43293)
How it was run: as §1

[1] = read-out: % Enzyme Activity (relative to DMSO controls) / TP-0005801 (0.3µM) / Data 1
[2] = read-out: % Enzyme Activity (relative to DMSO controls) / TP-0005801 (0.3µM) / Data 2

T1 sequence (O15075 whole entry): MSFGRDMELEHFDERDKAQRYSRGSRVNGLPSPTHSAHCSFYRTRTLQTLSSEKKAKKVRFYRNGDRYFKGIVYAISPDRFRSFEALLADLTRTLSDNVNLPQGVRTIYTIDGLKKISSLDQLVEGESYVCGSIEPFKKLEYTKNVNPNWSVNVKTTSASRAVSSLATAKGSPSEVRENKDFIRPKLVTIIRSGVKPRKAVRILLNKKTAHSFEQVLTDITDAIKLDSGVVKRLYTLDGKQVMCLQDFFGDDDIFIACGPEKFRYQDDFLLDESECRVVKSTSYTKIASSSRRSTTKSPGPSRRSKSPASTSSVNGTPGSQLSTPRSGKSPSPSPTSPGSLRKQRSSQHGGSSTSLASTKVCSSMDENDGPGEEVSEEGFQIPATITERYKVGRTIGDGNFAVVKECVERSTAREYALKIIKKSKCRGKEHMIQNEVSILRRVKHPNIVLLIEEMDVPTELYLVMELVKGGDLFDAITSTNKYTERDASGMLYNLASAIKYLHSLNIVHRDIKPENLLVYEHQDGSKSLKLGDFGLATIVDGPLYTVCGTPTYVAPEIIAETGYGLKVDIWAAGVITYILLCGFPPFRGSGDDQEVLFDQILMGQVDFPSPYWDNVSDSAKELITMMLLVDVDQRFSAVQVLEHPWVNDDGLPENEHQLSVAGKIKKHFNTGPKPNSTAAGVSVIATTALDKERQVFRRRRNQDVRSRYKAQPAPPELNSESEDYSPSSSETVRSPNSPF
Sequence of CDK6/cyclin D3 (Q00534 whole entry): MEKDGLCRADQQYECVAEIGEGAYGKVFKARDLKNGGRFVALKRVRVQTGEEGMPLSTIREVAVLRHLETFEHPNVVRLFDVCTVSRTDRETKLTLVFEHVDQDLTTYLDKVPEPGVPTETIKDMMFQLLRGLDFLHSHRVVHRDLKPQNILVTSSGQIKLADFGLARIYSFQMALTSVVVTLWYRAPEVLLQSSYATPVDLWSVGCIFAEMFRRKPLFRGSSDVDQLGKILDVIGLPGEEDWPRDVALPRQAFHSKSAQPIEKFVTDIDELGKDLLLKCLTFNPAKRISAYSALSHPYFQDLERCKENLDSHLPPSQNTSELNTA
Sequence of CDK6/cyclin D3 (P30281 whole entry partner): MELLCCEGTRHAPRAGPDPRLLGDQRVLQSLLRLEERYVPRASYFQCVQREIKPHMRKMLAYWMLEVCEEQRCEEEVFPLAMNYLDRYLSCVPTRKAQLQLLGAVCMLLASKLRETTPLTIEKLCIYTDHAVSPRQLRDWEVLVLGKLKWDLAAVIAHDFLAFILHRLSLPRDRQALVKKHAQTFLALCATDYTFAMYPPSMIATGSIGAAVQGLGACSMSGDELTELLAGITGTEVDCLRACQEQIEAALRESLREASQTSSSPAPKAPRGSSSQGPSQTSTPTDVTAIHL
Sequence of DAPK2 (Q9UIK4 whole entry): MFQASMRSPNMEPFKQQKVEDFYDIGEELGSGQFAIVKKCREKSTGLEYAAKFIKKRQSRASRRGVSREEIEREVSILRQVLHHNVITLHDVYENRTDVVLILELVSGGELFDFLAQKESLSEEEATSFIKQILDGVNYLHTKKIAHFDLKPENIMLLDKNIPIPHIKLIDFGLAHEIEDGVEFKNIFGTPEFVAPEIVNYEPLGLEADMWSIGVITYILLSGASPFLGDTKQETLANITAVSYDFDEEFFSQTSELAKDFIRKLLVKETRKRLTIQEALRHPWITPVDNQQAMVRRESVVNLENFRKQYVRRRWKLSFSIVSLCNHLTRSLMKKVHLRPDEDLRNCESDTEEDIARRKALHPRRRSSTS
Sequence of GRK5 (P34947 whole entry): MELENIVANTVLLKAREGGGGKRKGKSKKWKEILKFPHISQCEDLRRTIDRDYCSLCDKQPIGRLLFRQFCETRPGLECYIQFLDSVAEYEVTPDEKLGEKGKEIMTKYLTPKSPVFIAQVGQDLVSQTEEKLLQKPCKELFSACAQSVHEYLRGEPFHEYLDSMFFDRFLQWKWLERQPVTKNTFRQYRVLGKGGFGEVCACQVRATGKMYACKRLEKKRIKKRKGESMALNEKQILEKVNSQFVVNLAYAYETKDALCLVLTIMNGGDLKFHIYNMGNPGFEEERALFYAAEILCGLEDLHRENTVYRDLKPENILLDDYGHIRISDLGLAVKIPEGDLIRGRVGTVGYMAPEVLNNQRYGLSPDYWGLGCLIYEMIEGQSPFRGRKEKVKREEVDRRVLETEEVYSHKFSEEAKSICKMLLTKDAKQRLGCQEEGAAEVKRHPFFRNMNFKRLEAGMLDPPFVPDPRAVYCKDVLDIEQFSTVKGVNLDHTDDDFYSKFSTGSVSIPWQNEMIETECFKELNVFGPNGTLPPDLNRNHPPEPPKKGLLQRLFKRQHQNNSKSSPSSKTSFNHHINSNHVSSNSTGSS
Sequence of RIPK2 (O43353 whole entry): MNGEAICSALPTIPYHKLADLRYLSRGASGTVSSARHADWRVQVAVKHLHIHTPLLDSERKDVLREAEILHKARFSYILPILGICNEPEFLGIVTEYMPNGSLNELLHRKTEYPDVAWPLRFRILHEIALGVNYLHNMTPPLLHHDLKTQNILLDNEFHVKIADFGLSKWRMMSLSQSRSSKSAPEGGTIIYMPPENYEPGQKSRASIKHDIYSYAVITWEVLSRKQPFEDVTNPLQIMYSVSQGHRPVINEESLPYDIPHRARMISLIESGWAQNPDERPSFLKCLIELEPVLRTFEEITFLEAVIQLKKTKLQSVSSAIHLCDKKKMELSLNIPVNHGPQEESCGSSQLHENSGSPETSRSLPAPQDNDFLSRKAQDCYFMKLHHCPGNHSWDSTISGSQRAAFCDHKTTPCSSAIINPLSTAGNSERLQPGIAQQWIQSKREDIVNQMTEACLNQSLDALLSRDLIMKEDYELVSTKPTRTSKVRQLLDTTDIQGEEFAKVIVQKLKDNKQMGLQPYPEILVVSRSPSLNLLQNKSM
Sequence of TESK2 (Q96S53 whole entry): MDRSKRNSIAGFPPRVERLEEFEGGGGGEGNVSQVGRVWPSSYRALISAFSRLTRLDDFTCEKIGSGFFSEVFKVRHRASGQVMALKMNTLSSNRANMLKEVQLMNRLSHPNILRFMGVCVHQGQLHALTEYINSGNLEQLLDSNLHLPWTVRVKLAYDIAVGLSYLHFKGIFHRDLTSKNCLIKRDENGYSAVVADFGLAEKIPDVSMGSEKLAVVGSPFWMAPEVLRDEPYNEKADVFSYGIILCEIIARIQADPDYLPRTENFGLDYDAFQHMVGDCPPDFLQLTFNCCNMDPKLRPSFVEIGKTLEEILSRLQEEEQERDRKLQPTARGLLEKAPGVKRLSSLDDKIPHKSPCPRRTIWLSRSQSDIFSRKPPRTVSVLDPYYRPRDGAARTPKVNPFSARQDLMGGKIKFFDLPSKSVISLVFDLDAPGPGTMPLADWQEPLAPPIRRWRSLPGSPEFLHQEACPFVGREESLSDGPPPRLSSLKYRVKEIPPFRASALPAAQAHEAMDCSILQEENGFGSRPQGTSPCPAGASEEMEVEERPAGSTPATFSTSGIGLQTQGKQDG
Sequence of ALK (Q9UM73 whole entry): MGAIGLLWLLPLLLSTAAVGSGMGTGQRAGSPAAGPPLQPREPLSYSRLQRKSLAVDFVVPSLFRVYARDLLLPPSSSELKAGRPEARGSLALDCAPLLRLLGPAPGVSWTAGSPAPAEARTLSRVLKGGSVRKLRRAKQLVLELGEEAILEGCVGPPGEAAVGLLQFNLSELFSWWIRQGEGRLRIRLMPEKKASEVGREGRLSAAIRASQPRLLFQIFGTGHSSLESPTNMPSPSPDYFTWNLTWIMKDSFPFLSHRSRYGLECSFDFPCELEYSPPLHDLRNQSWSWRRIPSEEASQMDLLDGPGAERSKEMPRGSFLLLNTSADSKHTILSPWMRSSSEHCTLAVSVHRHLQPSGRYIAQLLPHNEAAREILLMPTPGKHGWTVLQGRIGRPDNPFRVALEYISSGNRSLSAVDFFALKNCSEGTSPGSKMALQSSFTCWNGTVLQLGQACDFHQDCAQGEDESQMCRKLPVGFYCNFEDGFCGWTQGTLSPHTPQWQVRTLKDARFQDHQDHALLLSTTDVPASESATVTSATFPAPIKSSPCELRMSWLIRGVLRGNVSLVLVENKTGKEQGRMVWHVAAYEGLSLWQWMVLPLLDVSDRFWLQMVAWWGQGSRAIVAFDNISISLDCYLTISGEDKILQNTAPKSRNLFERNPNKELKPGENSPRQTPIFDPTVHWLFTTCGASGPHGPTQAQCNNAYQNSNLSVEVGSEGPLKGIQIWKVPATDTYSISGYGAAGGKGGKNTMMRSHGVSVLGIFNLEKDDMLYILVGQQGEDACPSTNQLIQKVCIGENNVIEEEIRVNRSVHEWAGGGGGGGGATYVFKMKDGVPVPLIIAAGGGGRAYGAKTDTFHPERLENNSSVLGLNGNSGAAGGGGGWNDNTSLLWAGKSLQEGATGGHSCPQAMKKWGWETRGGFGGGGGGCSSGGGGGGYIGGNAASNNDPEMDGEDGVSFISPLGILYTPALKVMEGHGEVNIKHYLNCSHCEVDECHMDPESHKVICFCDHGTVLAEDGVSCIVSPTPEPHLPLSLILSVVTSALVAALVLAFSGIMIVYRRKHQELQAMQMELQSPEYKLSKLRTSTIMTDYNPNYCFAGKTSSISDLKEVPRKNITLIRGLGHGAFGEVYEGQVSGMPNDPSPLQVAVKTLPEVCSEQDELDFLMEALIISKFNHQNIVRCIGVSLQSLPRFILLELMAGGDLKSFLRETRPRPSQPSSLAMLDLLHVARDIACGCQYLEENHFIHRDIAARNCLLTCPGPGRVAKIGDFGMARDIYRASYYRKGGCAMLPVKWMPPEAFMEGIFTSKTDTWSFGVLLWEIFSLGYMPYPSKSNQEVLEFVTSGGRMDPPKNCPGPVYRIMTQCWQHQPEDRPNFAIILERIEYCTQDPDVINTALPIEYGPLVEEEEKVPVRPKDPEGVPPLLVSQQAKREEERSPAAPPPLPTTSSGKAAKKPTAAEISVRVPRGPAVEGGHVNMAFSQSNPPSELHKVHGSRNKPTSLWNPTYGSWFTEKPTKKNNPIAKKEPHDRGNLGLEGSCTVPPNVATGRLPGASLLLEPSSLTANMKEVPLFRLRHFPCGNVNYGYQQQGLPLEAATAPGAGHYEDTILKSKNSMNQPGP

Compound: COc1cc(N2CCN(C)CC2)c(C)cc1Nc1ncc(Br)c(Nc2cccnc2N(C)C)n1 [TP-5801]
- remaining activity at 0.3 µM (ALK; [1]): 3.64%
- remaining activity at 0.3 µM (ALK; [2]): 3.52%
- remaining activity at 0.3 µM (BLK; [1]): 88.3%
- remaining activity at 0.3 µM (BLK; [2]): 87.5%
- remaining activity at 0.3 µM (CDK6/cyclin D3; [1]): 103%
- remaining activity at 0.3 µM (CDK6/cyclin D3; [2]): 101%
- remaining activity at 0.3 µM (DAPK2; [1]): 95.1%
- remaining activity at 0.3 µM (DAPK2; [2]): 93.2%
- remaining activity at 0.3 µM (DCAMKL1; [1]): 94.9%
- remaining activity at 0.3 µM (DCAMKL1; [2]): 93.4%
- remaining activity at 0.3 µM (FAK/PTK2; [1]): 12.3%
- remaining activity at 0.3 µM (FAK/PTK2; [2]): 11.4%
- remaining activity at 0.3 µM (GRK5; [1]): 92%
- remaining activity at 0.3 µM (GRK5; [2]): 89.8%
- remaining activity at 0.3 µM (IKKe/IKBKE; [1]): 99.7%
- remaining activity at 0.3 µM (IKKe/IKBKE; [2]): 94.2%
- remaining activity at 0.3 µM (LIMK2; [1]): 114%
- remaining activity at 0.3 µM (LIMK2; [2]): 108%
- remaining activity at 0.3 µM (MSK2/RPS6KA4; [1]): 99%
- remaining activity at 0.3 µM (MSK2/RPS6KA4; [2]): 95%
- remaining activity at 0.3 µM (NEK3; [1]): 89%
- remaining activity at 0.3 µM (NEK3; [2]): 88%
- remaining activity at 0.3 µM (PKG1b; [1]): 51%
- remaining activity at 0.3 µM (PKG1b; [2]): 50%
- remaining activity at 0.3 µM (PYK2; [1]): 23.7%
- remaining activity at 0.3 µM (PYK2; [2]): 23.5%
- remaining activity at 0.3 µM (RIPK2; [1]): 95.8%
- remaining activity at 0.3 µM (RIPK2; [2]): 93.9%
- remaining activity at 0.3 µM (RON/MST1R; [1]): 94%
- remaining activity at 0.3 µM (RON/MST1R; [2]): 92.4%
- remaining activity at 0.3 µM (RSK3; [1]): 80.3%
- remaining activity at 0.3 µM (RSK3; [2]): 79.2%
- remaining activity at 0.3 µM (STK33; [1]): 32.4%
- remaining activity at 0.3 µM (STK33; [2]): 31.5%
- remaining activity at 0.3 µM (STK39/STLK3; [1]): 61.2%
- remaining activity at 0.3 µM (STK39/STLK3; [2]): 61.1%
- remaining activity at 0.3 µM (TESK2; [1]): 92.8%
- remaining activity at 0.3 µM (TESK2; [2]): 90.1%
- remaining activity at 0.3 µM (ZIPK/DAPK3; [1]): 81%
- remaining activity at 0.3 µM (ZIPK/DAPK3; [2]): 79.4%
